From article PMC3410622 (2012)

Biological target: glutamate carboxypeptidase II (GCPII) (Homo sapiens, UniProt Q04609)
Assay type: biochemical

Sequence of glutamate carboxypeptidase II (GCPII) (Q04609 whole entry): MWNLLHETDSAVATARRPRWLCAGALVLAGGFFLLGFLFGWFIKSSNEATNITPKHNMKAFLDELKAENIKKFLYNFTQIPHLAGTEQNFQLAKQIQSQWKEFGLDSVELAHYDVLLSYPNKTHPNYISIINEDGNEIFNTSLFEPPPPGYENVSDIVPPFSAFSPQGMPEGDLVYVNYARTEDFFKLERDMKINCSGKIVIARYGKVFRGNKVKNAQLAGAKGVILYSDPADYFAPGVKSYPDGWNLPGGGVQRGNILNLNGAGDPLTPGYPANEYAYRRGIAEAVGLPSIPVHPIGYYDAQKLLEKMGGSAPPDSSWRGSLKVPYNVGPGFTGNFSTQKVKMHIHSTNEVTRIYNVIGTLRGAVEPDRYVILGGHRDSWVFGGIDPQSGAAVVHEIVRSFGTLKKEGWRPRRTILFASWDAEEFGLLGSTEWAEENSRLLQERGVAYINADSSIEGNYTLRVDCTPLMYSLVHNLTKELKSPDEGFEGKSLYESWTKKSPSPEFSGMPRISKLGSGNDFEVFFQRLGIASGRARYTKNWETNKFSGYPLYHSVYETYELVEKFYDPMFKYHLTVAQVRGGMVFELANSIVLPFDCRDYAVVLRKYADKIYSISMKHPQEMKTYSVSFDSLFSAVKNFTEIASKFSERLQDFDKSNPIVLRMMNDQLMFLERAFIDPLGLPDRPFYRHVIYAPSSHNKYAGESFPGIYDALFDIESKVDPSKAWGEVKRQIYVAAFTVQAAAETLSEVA

Q: Which Ki does the source give for CCC[C@H](NC(=O)N[C@@H](CCC(=O)O)C(=O)O)C(=O)O [ZJ44, N-[[[(1S)-1-Carboxy-3-methylpropyl]amino]carbonyl]-L-glutamic acid] here?
A: 0.0394 ± 0.0029 µM
